Drawing on patent US8394825B2, “Compound” (Sterix Limited, priority 2007, dated 2013), this text covers melting point for 39 compounds.

The compound `COc1cc2c(cc1O)C(OC)CN(Cc1cc(OC)c(OC)c(OC)c1)C2` (stereo not drawn) [F33, 4,7-Dimethoxy-2-(3,4,5-trimethoxybenzyl)-1,2,3,4-tetrahydro-isoquinolin-6-ol] returned a melting point of 51 to 54 °C.

Turning to `CCOC1CN(Cc2ccccc2OC)Cc2cc(OC)c(O)cc21` (stereo not drawn) [F34, 4-Ethoxy-7-methoxy-2-(2-methoxybenzyl)-1,2,3,4-tetrahydroisoquinolin-6-ol], the melting point fell in the range of 101 to 102 °C. As for `CCOC1CN(Cc2cccc(OC)c2)Cc2cc(OC)c(O)cc21` (stereo not drawn) [F35, 4-Ethoxy-7-methoxy-2-(3-methoxy-benzyl)-1,2,3,4-tetrahydroisoquinolin-6-ol], the melting point was 134 to 135 °C. In turn, `CCOC1CN(Cc2ccc(OC)cc2)Cc2cc(OC)c(O)cc21` (stereo not drawn) [F36, 4-Ethoxy-7-methoxy-2-(4-methoxybenzyl)-1,2,3,4-tetrahydroisoquinolin-6-ol] registered a melting point of 154 to 157 °C. The value for `CCOC1CN(Cc2cc(OC)c(OC)c(OC)c2)Cc2cc(OC)c(O)cc21` (stereo not drawn) [F37, 4-Ethoxy-7-methoxy-2-(3,4,5-trimethoxybenzyl)-1,2,3,4-tetrahydroisoquinolin-6-ol] was 94 to 96 °C; that for `COc1cc2c(cc1OCc1ccccc1)CCN(Cc1cccc([N+](=O)[O-])c1)C2` [compound 10, 6-Benzyloxy-7-methoxy-2-(3-nitrobenzyl)-1,2,3,4-tetrahydroisoquinoline] was 109 to 110 °C; that for `COc1cc2c(cc1OCc1ccccc1)CCN(Cc1cccnc1)C2` [compound 11, 6-Benzyloxy-7-methoxy-2-(pyridin-3-ylmethyl)-1,2,3,4-tetrahydroisoquinoline] was 78 to 79 °C. On to `COc1cc2c(cc1OCc1ccccc1)CCN(Cc1ccccn1)C2` [compound 12, 6-Benzyloxy-7-methoxy-2-(pyridin-2-ylmethyl)-1,2,3,4-tetrahydroisoquinoline], for which the melting point lay within 73 to 74 °C. Next, `COc1cc2c(cc1OCc1ccccc1)CCN(Cc1ccncc1)C2` [compound 13, 6-Benzyloxy-7-methoxy-2-(pyridin-4-ylmethyl)-1,2,3,4-tetrahydroisoquinoline]: 125 to 126 °C; `COc1ccc(CCN2CCc3cc(OCc4ccccc4)c(OC)cc3C2)cc1` [compound 14, 6-Benzyloxy-7-methoxy-2-(4-methoxyphenethyl)-1,2,3,4-tetrahydroisoquinoline]: 88 to 89 °C; `COc1ccc(C(=O)CN2CCc3cc(OCc4ccccc4)c(OC)cc3C2)cc1OC` [compound 15, 6-Benzyloxy-2-(2-(3,4-dimethoxyphenyl)-2-oxoethyl)-7-methoxy-1,2,3,4-tetrahydroisoquinoline]: 126 to 127 °C. The value for `COc1ccc(CN2CCc3cc(OCc4ccccc4)c(OC)cc3C2)cc1OC` [compound 18, 6-Benzyloxy-7-methoxy-2-(3,4-dimethoxybenzyl)-1,2,3,4-tetrahydroisoquinoline] was 98 to 99 °C; that for `COc1cc2c(cc1OCc1ccccc1)CCN(Cc1cccc(O)c1)C2` [compound 30, 6-Benzyloxy-2-(3-hydroxybenzyl)-7-methoxy-1,2,3,4-tetrahydroisoquinoline] was 78 to 79 °C; that for `COc1cc2c(cc1OCc1ccccc1)CCN(Cc1cccc(NC(C)=O)c1)C2` [compound 35, 2-(3-Acetamidobenzyl)-6-(benzyloxy)-7-methoxy-1,2,3,4-tetrahydroisoquinoline] was 63 to 66 °C. The value for `COc1cc2c(cc1OCc1ccccc1)CCN(Cc1cccc(NS(C)(=O)=O)c1)C2` [compound 36, 6-(Benzyloxy)-2-(3-methanesulfonylaminobenzyl)-7-methoxy-1,2,3,4-tetrahydroisoquinoline] was 132 to 133 °C; that for `COc1cccc(CN2CCc3cc(O)ccc3C2)c1` [compound 37, 6-Hydroxy-2-(3-methoxybenzyl)-1,2,3,4-tetrahydroisoquinoline] was 223 to 224 °C. On to `COc1ccc(CCN2CCc3cc(O)c(OC)cc3C2)cc1` [compound 46, 6-Hydroxy-7-methoxy-2-(4-methoxyphenethyl)-1,2,3,4-tetrahydroisoquinoline], for which the melting point was in the range of 170 to 171 °C. Take `COc1cc2c(cc1O)CCN(Cc1cccnc1)C2` [compound 47, 6-Hydroxy-7-methoxy-2-(pyridin-3-ylmethyl)-1,2,3,4-tetrahydroisoquinoline]: the melting point was in the range of 165 to 166 °C.

Consider `COc1cc2c(cc1O)CCN(Cc1ccccn1)C2` [compound 48, 6-Hydroxy-7-methoxy-2-(pyridin-2-ylmethyl)-1,2,3,4-tetrahydroisoquinoline], for which the melting point fell in the range of 137 to 138 °C.

`COc1cc2c(cc1O)CCN(Cc1cccc(OC(C)=O)c1)C2` [compound 51, 6-Hydroxy-7-methoxy-2-(3-acetoxybenzyl)-1,2,3,4-tetrahydroisoquinoline] yielded a melting point of 120 to 122 °C. The value for `COc1cc2c(cc1O)CCN(Cc1cccc(NS(C)(=O)=O)c1)C2` [compound 52, 6-Hydroxy-7-methoxy-2-(3-methanesulfonylaminobenzyl)-1,2,3,4-tetrahydroisoquinoline] was 99 to 101 °C; that for `COc1cc2c(cc1O)CCN(CC(=O)c1ccc(OC)c(OC)c1)C2` [compound 53, 2-(2-(3,4-Dimethoxyphenyl)-2-oxoethyl)-6-hydroxy-7-methoxy-1,2,3,4-tetrahydroisoquinoline] was 149 to 150 °C. The value for `COc1cc2c(cc1O)CCN(Cc1cccc(C(C)=O)c1)C2` [compound 62, 6-Hydroxy-7-methoxy-2-(3-acetylbenzyl)-1,2,3,4-tetrahydroisoquinoline] was 132 to 134 °C; that for `COc1cc2c(cc1OS(N)(=O)=O)CCN(Cc1cccc(NS(C)(=O)=O)c1)C2` [compound 88, 7-Methoxy-2-(3-(methylsulfonamido)benzyl)-1,2,3,4-tetrahydroisoquinolin-6-yl sulfamate] was 151 to 152 °C; that for `COc1cc2c(cc1OCc1ccccc1)CCN(C(=O)c1cc(OC)c(OC)c(OC)c1)C2` [compound 111, 6-Benzyloxy-7-methoxy-2-(3,4,5-trimethoxybenzoyl)-1,2,3,4-tetrahydroisoquinoline] was 63 to 64 °C.

`COc1cccc(C(=O)N2CCc3cc(OCc4ccccc4)c(OC)cc3C2=O)c1` [compound 131, 6-Benzyloxy-7-methoxy-2-(3-methoxybenzoyl)-3,4-dihydro-2H-isoquinoline-1-one] had a melting point of 141 to 143 °C. The compound `COc1cc(OC)cc(C(=O)N2CCc3cc(OCc4ccccc4)ccc3C2=O)c1` [compound 132, 6-Benzyloxy-2-(3,5-dimethoxybenzoyl)-3,4-dihydro-2H-isoquinoline-1-one] displayed a melting point of 158 to 159 °C. Compound `COc1cc(OC)cc(C(=O)N2CCc3cc(O)ccc3C2=O)c1` [compound 137, 2-(3,5-Dimethoxybenzoyl)-6-hydroxy-3,4-dihydro-2H-isoquinoline-1-one] showed a melting point of 178 to 179 °C.

In the case of `COc1cc2c(cc1O)CC(C)N(Cc1cc(OC)c(OC)c(OC)c1)C2` (stereo not drawn) [compound 219, 2-(3,4,5-Trimethoxybenzyl)-1,2,3,4-tetrahydro-7-methoxy-3-methylisoquinolin-6-ol], the melting point lay in the range of 127 to 132 °C. Next, `COc1cc2c(cc1O)CC(C)(C)N(Cc1cc(OC)c(OC)c(OC)c1)C2` [compound 229, 7-Methoxy-3,3-dimethyl-2-(3,4,5-trimethoxy-benzyl)-1,2,3,4-tetrahydro-isoquinolin-6-ol]: 143 to 147 °C; `COc1cc(OC)cc(C(=O)N2Cc3cc(OC)c(O)cc3CC2(C)C)c1` [compound 235, (3,4-Dihydro-6-hydroxy-7-methoxy-3,3-dimethylisoquinolin-2(1H)-yl)(3,5-dimethoxyphenyl)methanone]: 163 to 166 °C. In turn, `COc1cc2c(cc1OCc1ccccc1)CC(C)(C)N(C(=O)c1cc(OC)c(OC)c(OC)c1)C2C` (stereo not drawn) [compound 245, (6-(Benzyloxy)-3,4-dihydro-7-methoxy-1,3,3-trimethylisoquinolin-2(1H)-yl)-(3,4,5-trimethoxyphenyl)methanone] returned a melting point of 175 to 177 °C. Next, `COc1cc2c(cc1O)CC(C)(C)N(C(=O)c1cc(OC)c(OC)c(OC)c1)C2C` (stereo not drawn) [compound 246, (3,4-Dihydro-6-hydroxy-7-methoxy-1,3,3-trimethylisoquinolin-2(1H)-yl)(3,4,5-trimethoxyphenyl)methanone]: 198 to 200 °C; `COc1cc2c(cc1OS(N)(=O)=O)CC(C)(C)N(C(=O)c1cc(OC)c(OC)c(OC)c1)C2C` (stereo not drawn) [compound 247, Sulfamic acid 7-methoxy-1,3,3-trimethyl-2-(3,4,5-trimethoxy-benzoyl)-1,2,3,4-tetrahydro-isoquinolin-6-yl ester]: 170 to 173 °C; `COc1cccc(CN2CCc3cc(O)c(OC)cc3C2C)c1` (stereo not drawn) [compound 253, 2-(3-Methoxybenzyl)-1,2,3,4-tetrahydro-7-methoxy-1-methylisoquinolin-6-ol]: 97 to 99 °C.

Take `COc1cc2c(cc1OCc1ccccc1)CCC(=O)N2Cc1cc(OC)c(OC)c(OC)c1` [compound 289, 6-(Benzyloxy)-7-methoxy-1-(3,4,5-trimethoxybenzyl)-3,4-dihydro-1H-quinolin-2-one]: the melting point was 129 to 130 °C. Turning to `COc1ccc(CN2C(=O)CCc3cc(O)c(OC)cc32)cc1` [compound 292, 6-Hydroxy-7-methoxy-1-(4-methoxybenzyl)-3,4-dihydro-1H-quinolin-2-one], the melting point was 168 to 169 °C. Compound `COc1cc2c(cc1O)CCC(=O)N2Cc1cc(OC)c(OC)c(OC)c1` [compound 293, 6-Hydroxy-7-methoxy-1-(3,4,5-trimethoxybenzyl)-3,4-dihydro-1H-quinolin-2-one] had a melting point of 157 to 158 °C. In the case of `COc1ccccc1CN1CCCc2cc(OCc3ccccc3)c(OC)cc2C1` [compound 302, 7-Benzyloxy-8-methoxy-2-(2-methoxybenzyl)-2,3,4,5-tetrahydro-1H-benzo[c]azepine], the melting point is 105 to 106 °C.
